According to publication PMC6309520 (Cell chemical biology, 2018):

Biological target: T1, ARH3 (ADP-ribosyl hydrolase 3, ADPRHL2) (Homo sapiens, UniProt Q9NX46)
T1 sequence (Q9NX46 1-363): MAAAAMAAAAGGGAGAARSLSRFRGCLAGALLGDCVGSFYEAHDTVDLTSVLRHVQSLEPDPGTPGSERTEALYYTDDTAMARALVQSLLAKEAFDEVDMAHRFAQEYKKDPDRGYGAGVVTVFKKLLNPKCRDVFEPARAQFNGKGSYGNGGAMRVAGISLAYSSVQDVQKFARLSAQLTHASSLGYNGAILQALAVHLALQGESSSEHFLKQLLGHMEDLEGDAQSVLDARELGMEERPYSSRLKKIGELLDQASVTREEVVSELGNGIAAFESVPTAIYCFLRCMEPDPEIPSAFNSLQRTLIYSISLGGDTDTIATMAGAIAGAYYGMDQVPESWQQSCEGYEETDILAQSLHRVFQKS
Assay: Michaelis-Menten kinetics
Format: biochemical

Km: 312 ± 30 µM
SMILES: O=c1cc(C(F)(F)F)c2ccc(O[C@H]3O[C@H](COP(=O)(O)OP(=O)(O)OC[C@H]4O[C@@H](n5cnc6c(=O)[nH]cnc65)[C@H](O)[C@@H]4O)[C@@H](O)[C@H]3O)cc2o1 [compound 12, TFMU-IDPr]
